In patent publication US6472348B1, “Pyridone derivatives and herbicides” (Kumiai Chemical Industry Co., Ltd., priority 1996, dated 2002):

What was measured:
[1] = test system: slender amaranth (Am); test: Test Example 7: crop plant selectivity by upland field soil treatment (corn), herbicidal effects; assay type: in vivo; parameters: scale not given here; conditions: dose 6.3 g ai/10a, 21st day after application
Description: (§1) (Test on Crop Plant Selectivity by Upland Field Soil Treatment)
(§2) In a plastic pot (surface area: 600 cm^2) filled with sand, corn (Ze), green foxtail (Se), pale smartweed (Po), slender amaranth (Am), common lambsquarters (Ch) and China jute (Ab) were sown and covered with soil. […] The plants were then cultured in a green house, and the evaluation of the herbicidal effects and phytotoxicity was conducted on the 21st day after the application in accordance with the standards as identified in Table 47.

[2] = test system: China jute (Ab); test: as above; assay type: in vivo; parameters: scale not given here; conditions: dose 6.3 g ai/10a, 21st day after application
Description: as §1, §2

[3] = test system: pale smartweed (Po); test: as above; assay type: in vivo; parameters: scale not given here; conditions: dose 6.3 g ai/10a, 21st day after application
Description: as §1, §2

[4] = test system: common lambsquarters (Ch); test: as above; assay type: in vivo; parameters: scale not given here; conditions: dose 6.3 g ai/10a, 21st day after application
Description: as §1, §2

[5] = test system: green foxtail (Se); test: as above; assay type: in vivo; parameters: scale not given here; conditions: dose 6.3 g ai/10a, 21st day after application
Description: as §1, §2

[6] = test system: wheat (Tr); test: Test Example 9: crop plant selectivity by upland field foliage treatment (wheat), phytotoxicity; conditions: dose 1.6 g ai/10a, 14th day after treatment;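 further: grade of crop injury; 5 = at least 90%; 4 = 70 to 90%; 3 = 50 to 70%; 2 = 30 to 50%; 1 = 10 to 30%; 0 = under 10%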
Description: (§3) (Test on Crop Plant Selectivity by Upland Field Foliage Treatment)
as §2, with “wheat (Tr),” for “corn (Ze), green foxtail (Se),”, “cultured in a green house for 2 weeks.” for “covered with soil.”, “14th” for “21st”, “treatment” for “application”

[7] = test system: cotton (Go); test: Test Example 4: crop plant selectivity by upland field soil treatment (cotton), phytotoxicity; assay type: in vivo; parameters: scale not given here; conditions: dose 6.3 g ai/10 a, evaluated 21st day after application
Description: as §1
(§4) In a plastic pot (surface area: 600 cm^2) filled with sand, cotton (Go), Diaitaria ciliaris (Di), green foxtail (Se), pale smartweed (Po), slender amaranth (Am), common lambsquarters (Ch) and China jute (Ab) were sown and covered with soil. […] The plants were then cultured in a green house, and the evaluation of the herbicidal effects and phytotoxicity was conducted on the 21st day after the application in accordance with the standards as identified in Table 47. Symbol—represents “not tested”.

[8] = test system: barnyardgrass (Ec); test: Test Example 2: herbicidal effects by upland field soil treatment; assay type: in vivo; conditions: 100 g of the active ingredient per 10 ares, 21st day after the application, index 0-5 of Table 47;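 further: grade of growth control; 5 = at least 90%; 4 = 70 to 90%; 3 = 50 to 70%; 2 = 30 to 50%; 1 = 10 to 30%; 0 = under 10%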
Description: (§5) (Test on Herbicidal Effects by Upland Field Soil Treatment)

[9] = test system: rice flatsedge (Ci); test: as above; assay type: in vivo; conditions: 100 g of the active ingredient per 10 ares, 21st day after the application, index 0-5 of Table 47
Description: as §5

[10] = test system: slender amaranth (Am); test: as above; assay type: in vivo; conditions: 100 g of the active ingredient per 10 ares, 21st day after the application, index 0-5 of Table 47
Description: as §5

[11] = test system: pale smartweed (Po); test: as above; assay type: in vivo; conditions: 100 g of the active ingredient per 10 ares, 21st day after the application, index 0-5 of Table 47
Description: as §5

[12] = test system: Digitaria ciliaris (Di); test: as above; assay type: in vivo; conditions: 100 g of the active ingredient per 10 ares, 21st day after the application, index 0-5 of Table 47;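 further: grade of growth control; 5 = at least 90%; 4 = 70 to 90%; 3 = 50 to 70%; 2 = 30 to 50%; 1 = 10 to 30%; 0 = under 10%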
Description: as §5

[13] = test system: common lambsquarters (Ch); test: as above; assay type: in vivo; conditions: 100 g of the active ingredient per 10 ares, 21st day after the application, index 0-5 of Table 47
Description: as §5

[14] = test system: barnyardgrass (Ec); test: Test Example 3: herbicidal effects by upland field foliage treatment; assay type: in vivo; parameters: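 grade of growth control; 5 = at least 90%; 4 = 70 to 90%; 3 = 50 to 70%; 2 = 30 to 50%; 1 = 10 to 30%; 0 = under 10%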; conditions: 100 g of the active ingredient per 10 ares, evaluated on the 14th day after treatment
In short: (§6)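 Test plants had been raised from seed for 2 weeks in a greenhouse, in soil-covered sand pots of 120 cm^2, and were returned there after spraying.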

[15] = test system: rice flatsedge (Ci); test: as above; assay type: in vivo; parameters: scale not given here; conditions: 100 g of the active ingredient per 10 ares, evaluated on the 14th day after treatment
In short: as §6

[16] = test system: slender amaranth (Am); test: as above; assay type: in vivo; parameters: scale not given here; conditions: 100 g of the active ingredient per 10 ares, evaluated on the 14th day after treatment
In short: as §6

[17] = test system: Diaitaria ciliaris (Di); test: as above; assay type: in vivo; parameters: scale not given here; conditions: 100 g of the active ingredient per 10 ares, evaluated on the 14th day after treatment
In short: as §6

[18] = test system: pale smartweed (Po); test: as above; assay type: in vivo; parameters: scale not given here; conditions: 100 g of the active ingredient per 10 ares, evaluated on the 14th day after treatment
In short: as §6

[19] = test system: common lambsquarters (Ch); test: as above; assay type: in vivo; parameters: scale not given here; conditions: 100 g of the active ingredient per 10 ares, evaluated on the 14th day after treatment
In short: as §6

[20] = test system: slender amaranth (Am); test: Test Example 4: crop plant selectivity by upland field soil treatment (cotton), herbicidal effects; assay type: in vivo; parameters: scale not given here; conditions: dose 6.3 g ai/10 a, evaluated 21st day after application
Description: as §1, §4

[21] = test system: China jute (Ab); test: as above; assay type: in vivo; parameters: scale not given here; conditions: dose 6.3 g ai/10 a, evaluated 21st day after application
Description: as §1, §4

[22] = test system: pale smartweed (Po); test: as above; assay type: in vivo; parameters: scale not given here; conditions: dose 6.3 g ai/10 a, evaluated 21st day after application
Description: as §1, §4

[23] = test system: common lambsquarters (Ch); test: as above; assay type: in vivo; parameters: scale not given here; conditions: dose 6.3 g ai/10 a, evaluated 21st day after application
Description: as §1, §4

[24] = test system: green foxtail (Se); test: as above; assay type: in vivo; parameters: scale not given here; conditions: dose 6.3 g ai/10 a, evaluated 21st day after application
Description: as §1, §4

[25] = test system: barnyardgrass (Ec); test: Test Example 1: herbicidal effects by paddy field soil treatment; assay type: in vivo; conditions: 100 g of the active ingredient per 10 ares, 21st day after the application, index 0-5 of Table 47;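 further: grade of growth control; 5 = at least 90%; 4 = 70 to 90%; 3 = 50 to 70%; 2 = 30 to 50%; 1 = 10 to 30%; 0 = under 10%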
In short: (§7)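 Herbicidal effect was scored against a graded standard 21 days after treatment. Seeds were sown in puddled, leveled paddy soil flooded to 3 cm depth, and the active ingredient was applied at 100 g per 10 ares before greenhouse culture.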

[26] = test system: bulrush (Sc); test: as above; assay type: in vivo; conditions: 100 g of the active ingredient per 10 ares, 21st day after the application, index 0-5 of Table 47
In short: as §7

[27] = test system: monochoria (Mo); test: as above; assay type: in vivo; conditions: 100 g of the active ingredient per 10 ares, 21st day after the application, index 0-5 of Table 47
In short: as §7

[28] = test system: corn (Ze); test: Test Example 7: crop plant selectivity by upland field soil treatment (corn), phytotoxicity; assay type: in vivo; parameters: scale not given here; conditions: dose 6.3 g ai/10a, 21st day after application
Description: as §1, §2

[29] = test system: soybean (Gl); test: Test Example 6: crop plant selectivity by upland field soil treatment (soybean), phytotoxicity; assay type: in vivo; parameters: scale not given here; conditions: dose 6.3 g ai/10a, 21st day after application
Description: as §1
(§8) In a plastic pot (surface area: 600 cm^2) filled with sand, soybean (Gl), Diaitaria ciliaris (Di), green foxtail (Se), Johnsongrass (So), pale smartweed (Po), slender amaranth (Am), common lambsquarters (Ch) and China jute (Ab) were sown and covered with soil. […] The plants were then cultured in a green house, and the evaluation of the herbicidal effects and phytotoxicity was conducted on the 21st day after the application in accordance with the standards as identified in Table 47. Symbol—represents “not tested”.

[30] = test system: slender amaranth (Am); test: Test Example 6: crop plant selectivity by upland field soil treatment (soybean), herbicidal effects; assay type: in vivo; parameters: scale not given here; conditions: dose 6.3 g ai/10a, 21st day after application
Description: as §1, §8

[31] = test system: China jute (Ab); test: as above; assay type: in vivo; parameters: scale not given here; conditions: dose 6.3 g ai/10a, 21st day after application
Description: as §1, §8

[32] = test system: pale smartweed (Po); test: as above; assay type: in vivo; parameters: scale not given here; conditions: dose 6.3 g ai/10a, 21st day after application
Description: as §1, §8

[33] = test system: common lambsquarters (Ch); test: as above; assay type: in vivo; parameters: scale not given here; conditions: dose 6.3 g ai/10a, 21st day after application
Description: as §1, §8

[34] = test system: green foxtail (Se); test: as above; assay type: in vivo; parameters: scale not given here; conditions: dose 6.3 g ai/10a, 21st day after application
Description: as §1, §8

[35] = test system: slender amaranth (Am); test: Test Example 9: crop plant selectivity by upland field foliage treatment (wheat), herbicidal effects; assay type: in vivo; parameters: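 grade of growth control; 5 = at least 90%; 4 = 70 to 90%; 3 = 50 to 70%; 2 = 30 to 50%; 1 = 10 to 30%; 0 = under 10%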; conditions: dose 1.6 g ai/10a, 14th day after treatment
Description: as §3
as §2, with “wheat (Tr),” for “corn (Ze), green foxtail (Se),”, “cultured in a green house for 2 weeks.” for “covered with soil.”, “14th” for “21st”, “treatment” for “application”

[36] = test system: China jute (Ab); test: as above; assay type: in vivo; parameters: scale not given here; conditions: dose 1.6 g ai/10a, 14th day after treatment
Description: as §3
as §2, with “wheat (Tr),” for “corn (Ze), green foxtail (Se),”, “cultured in a green house for 2 weeks.” for “covered with soil.”, “14th” for “21st”, “treatment” for “application”

[37] = test system: pale smartweed (Po); test: as above; assay type: in vivo; parameters: scale not given here; conditions: dose 1.6 g ai/10a, 14th day after treatment
Description: as §3
as §2, with “wheat (Tr),” for “corn (Ze), green foxtail (Se),”, “cultured in a green house for 2 weeks.” for “covered with soil.”, “14th” for “21st”, “treatment” for “application”

[38] = test system: common lambsquarters (Ch); test: as above; assay type: in vivo; parameters: scale not given here; conditions: dose 1.6 g ai/10a, 14th day after treatment
Description: as §3
as §2, with “wheat (Tr),” for “corn (Ze), green foxtail (Se),”, “cultured in a green house for 2 weeks.” for “covered with soil.”, “14th” for “21st”, “treatment” for “application”

SMILES: C#CC(CC)Oc1cc(-c2ccc(C(F)(F)F)n(C)c2=O)c(F)cc1Cl (racemic) [1-122]
- Herbicidal effects Am [1]: 5
- Herbicidal effects Ab [2]: 5
- Herbicidal effects Po [3]: 5
- Herbicidal effects Ch [4]: 5
- Herbicidal effects Se [5]: 5
- Phytotoxicity Tr [6]: 2
- Phytotoxicity Go [7]: 0
- Herbicidal effects Ec [8]: 5
- Herbicidal effects Ci [9]: 5
- Herbicidal effects Am [10]: 5
- Herbicidal effects Po [11]: 5
- Herbicidal effects Di [12]: 5
- Herbicidal effects Ch [13]: 5
- Herbicidal effects Ec [14]: 5
- Herbicidal effects Ci [15]: 5
- Herbicidal effects Am [16]: 5
- Herbicidal effects Di [17]: 5
- Herbicidal effects Po [18]: 5
- Herbicidal effects Ch [19]: 5
- Herbicidal effects Am [20]: 5
- Herbicidal effects Ab [21]: 5
- Herbicidal effects Po [22]: 5
- Herbicidal effects Ch [23]: 5
- Herbicidal effects Se [24]: 5
- Herbicidal effects Ec [25]: 5
- Herbicidal effects Sc [26]: 5
- Herbicidal effects Mo [27]: 5
- Phytotoxicity Ze [28]: 1
- Phytotoxicity Gl [29]: 2
- Herbicidal effects Am [30]: 5
- Herbicidal effects Ab [31]: 5
- Herbicidal effects Po [32]: 5
- Herbicidal effects Ch [33]: 5
- Herbicidal effects Se [34]: 5
- Herbicidal effects Am [35]: 5
- Herbicidal effects Ab [36]: 5
- Herbicidal effects Po [37]: 5
- Herbicidal effects Ch [38]: 5
